According to paper PMC4830892, “A microarray-based approach to evaluate the functional significance of protein-binding motifs” (Analytical and Bioanalytical Chemistry, 2016):
Non-standard residues stand in square brackets, D forms with d. Residues, ends and D or L forms follow the SMILES beside them. pY = N[C@@H](Cc1ccc(OP(=O)(O)O)cc1)C(=O)O; Ahx = NCCCCCC(=O)O

Legend:
[1] = test system: proteins in Jurkat cell lysate (total cellular proteome); assay: Competition of α-pY antibody binding with Jurkat cell lysate on peptide microarrays; conditions: for Kd: from EC50 and Kd α-pY by Cheng-Prusoff equation (Eq. 4), ± standard deviation
Method: (§1) Peptides that correspond to known interaction motifs involved in the formation of protein complexes in T cell signalling were purchased from EMC microcollections (Tübingen, Germany). All peptides carried an extra cysteine residue and a free N-terminus for immobilisation on the microarray substrates and a C-terminal amidation (see Electronic Supplementary Material (ESM), Table S1).
(§2) For generation of microarrays, peptide stock solutions (3 mM) in DMF were diluted 30 times with phosphate buffer (100 mM, pH 8) supplemented with 0.006 % (v/v) Triton X-100. N-Hydroxysuccinimide-preactivated slides served as substrates for immobilisation (Nexterion Slide H, Schott Nexterion/Peq-Lab, Erlangen, Germany) using a Nano-Plotter NP2.0 (GeSIM, Großerkmannshof, Germany), which employs piezo-driven pipetting tips to dispense peptide solutions. Microarray slides comprised 16 subarrays of doublets of each peptide. For each peptide, a volume of 1.2 nl was dispensed at a centre-to-centre spacing of 500 μm. During printing, temperature was maintained at 15 °C and air humidity at 65 %.
Jurkat T cell leukaemia cells were maintained in RPMI 1640 medium (PAN-Biotech, Aisenbach, Germany) supplemented with 10 % foetal calf serum at 37 °C in 5 % CO2. For the preparation of lysates, cells were resuspended in lysis buffer (1 % Triton X-100, 50 mM n-octyl-D-glucopyranoside (Fluka, Taufkirchen, Germany), 20 mM Tris, 1 mM EDTA, 150 mM NaCl, 1 mM Na3VO4, pH 7.5, and complete protease inhibitor cocktail (Roche Applied Science, Mannheim, Germany)). Incubation on ice for 1 h was followed by centrifugation at 20,000×g at 4 °C for 15 min to remove cell debris. Transmembrane proteins were extracted from lipid rafts by using N-octyl-D-glucopyranoside. Protein concentrations were measured by Bradford Assay.
(§3) Sixteen incubation chambers with identical subarrays consisting of peptides derived from binding motifs of signalling proteins (see ESM Table S1) were generated by attaching a clip-on frame to the microarray substrate (ProPlate Multiarray System, Grace Biolabs, Molecular Probes, Eugene, OR, USA). The typical incubation volume for the subarrays was 50 μl. Microarrays were either incubated with an α-pY antibody (α-pTyr 100, 9411, Cell Signalling, Frankfurt am Main, Germany) at the indicated concentrations or co-incubated with cell lysate at the indicated concentrations for 3 h at 4 °C. Additionally, in another set of experiments, recombinant GRB2-SH2 was incubated on microarrays alone or co-incubated with cell lysate employing an α-penta HIS antibody (34600, Qiagen, Hilden, Germany) for the detection of His-tagged GRB2-SH2.
(§4) After incubation, microarrays were washed three times with washing buffer (PBS, 0.05 % (w/v) BSA, 0.05 % (w/v) Tween-20). For the detection of signals, microarrays were incubated with a secondary α-mouse antibody conjugated with Alexa633 (A-21050, Invitrogen) at a concentration of 1 μg/ml for 15 min at RT followed by a last washing step with washing buffer. Microarrays were dried with nitrogen and scanned using a ProScanArray (PerkinElmer Life Sciences, Waltham, Massachusetts), and the data were analysed using ArrayPro Analyzer software (Media Cybernetics, Silver Spring, USA) as described before. Final data represented the mean signal intensities corrected for the median of a ring-shaped local background surrounding the respective peptide spot. Titrations with α-pY antibody and GRB2-SH2 were performed to calculate dissociation constants (see below).
For determination of EC50 values for competition with cell lysate, curves were fitted according to2 y=y0+Ae^−x/t with y0 as the signal intensity of the α-pY antibody or the recombinant GRB2-SH2 domain without cell lysate, A the amplitude, x the protein concentration in lysate, and t the decay constant. […]

[2] = test system: SH2 domain of GRB2 (GRB2-SH2); conditions: cited from earlier work; for binding to GRB2 / GRB2-SH2 (in words): Kd values of GRB2-SH2 described in recently published manuscript, ref [14]
Source text: In contrast, the data points for LATpY191 and SHP1pY564, and SigpY437, ZAPpY319 and CDζpY72/83 were above or below the linear correlation defined by the first four peptides. […] SigpY437, in contrast, is a poor binder for which already low concent ...

[3] = test system: α-phosphotyrosine antibody (α-pTyr 100); assay: Titration of α-pY antibody on peptide microarrays; type: binding; conditions: for Kd: peptide microarray, α-pY antibody 0.06 to 6.66 nM, 3 h at 4 °C, indirect immunofluorescence (Alexa633), bimolecular binding isotherm (Eq. 1), average ± standard deviation, six independent experiments; for α-pY titration curve / binding: result in words, R^2 of 0.8 as cutoff for a binder
Method: as §1, §2, §3, §4
The resulting titration curves were fitted with Origin (OriginLab Corporation, v.6.1057, Northampton, USA) using a binding isotherm for a bimolecular interaction (Eq. 1):1 Fabs=Fmaxprot/Kd+prot Fabs represents the intensity of a microarray spot after background correction and [prot] the concentration of the titrated binder. Kd and Fmax were obtained from the fits.
To render this approach quantitative, first the affinities of the α-pY antibody towards the phosphotyrosine motifs of the microarrays were determined. […] The titration curves were fitted with a binding isotherm for a bimolecular interaction (Eq. 1, Fig. 2a, Table 1). In general, a coefficient of determination (R^2) of 0.8 was used as a cutoff in order to score a peptide as a binder. […] Regarding the poly-proline motif (PP) containing peptides present on the microarray, only on the peptide GAB2-509 in five experiments, a titration curve with an R^2 > 0.8 could be generated.

Compound	Kd [1] [nM]	Kd [3] [nM]	also measured
CC(C)C[C@H](NC(=O)[C@H](CC(N)=O)NC(=O)[C@H](CCC(=O)O)NC(=O)[C@H](Cc1ccc(OP(=O)(O)O)cc1)NC(=O)[C@@H](NC(=O)[C@H](CC(=O)O)NC(=O)[C@H](CCC(=O)O)NC(=O)[C@H](CCCCN)NC(=O)[C@H](Cc1c[nH]cn1)NC(=O)[C@H](CCCCN)NC(=O)[C@H](CO)NC(=O)[C@@H](N)CS)C(C)C)C(=O)N[C@@H](Cc1c[nH]cn1)C(=O)N[C@H](C(=O)N[C@@H](CCCCN)C(=O)N[C@@H](CC(N)=O)C(=O)N[C@@H](CCCCN)C(N)=O)[C@@H](C)O [SHP1pY564] (H-CSKHKEDV[pY]ENLHTKNK-NH2)	17000 ± 10000	0.89 ± 0.57	affinity for the SH2 domain of GRB2 (in words) ([2]; same as stated for LATpY191 (strong affinity for SH2 domain of GRB2), ref [27]): The same holds true; affinity of the α-pY antibody (in words) ([3]; compared with the other pY peptides): relatively low affinity
CC(C)C[C@H](NC(=O)[C@H](Cc1ccc(OP(=O)(O)O)cc1)NC(=O)CNC(=O)[C@@H]1CCCN1C(=O)[C@H](CC(N)=O)NC(=O)[C@H](Cc1c[nH]cn1)NC(=O)[C@H](Cc1ccc(O)cc1)NC(=O)[C@H](CC(=O)O)NC(=O)[C@H](CC(=O)O)NC(=O)[C@H](CCC(=O)O)NC(=O)[C@H](CC(=O)O)NC(=O)[C@H](CCC(=O)O)NC(=O)[C@@H](N)CS)C(=O)N[C@H](C(=O)N[C@H](C(=O)N[C@@H](CC(C)C)C(=O)N1CCC[C@H]1C(=O)N[C@@H](CC(=O)O)C(=O)N[C@@H](CO)C(=O)N[C@H](C(=O)N1CCC[C@H]1C(N)=O)[C@@H](C)O)C(C)C)C(C)C [LATpY132] (H-CEDEDDYHNPG[pY]LVVLPDSTP-NH2)	11000 ± 13000	0.41 ± 0.38	binding to GRB2 / GRB2-SH2 (in words) [2]: good binder
CLDIQDKPPAPPMRNT-NH2 [PAK6]			α-pY titration curve / binding [3]: no titration curves could be generated
CC(C)[C@H](NC(=O)[C@H](CC(=O)O)NC(=O)[C@H](CC(=O)O)NC(=O)[C@H](Cc1ccc(OP(=O)(O)O)cc1)NC(=O)[C@@H](NC(=O)[C@H](CCC(=O)O)NC(=O)[C@H](CCC(N)=O)NC(=O)[C@H](CC(=O)O)NC(=O)[C@H](CC(=O)O)NC(=O)[C@H](CCC(=O)O)NC(=O)[C@@H](N)CS)C(C)C)C(=O)N[C@@H](C)C(=O)N[C@@H](CCC(=O)O)C(=O)N[C@@H](CCC(N)=O)C(=O)N[C@@H](CC(=O)O)C(N)=O [FYBpY595] (H-CEDDQEV[pY]DDVAEQD-NH2)		0.77 ± 0.28	
CC[C@H](C)[C@H](NC(=O)CNC(=O)[C@H](CC(=O)O)NC(=O)[C@H](Cc1ccc(OP(=O)(O)O)cc1)NC(=O)[C@@H](NC(=O)[C@H](CC(=O)O)NC(=O)[C@H](CC(=O)O)NC(=O)[C@H](CC(=O)O)NC(=O)[C@@H](N)CS)[C@@H](C)CC)C(=O)N[C@@H](CCC(=O)O)C(=O)N[C@@H](CCC(=O)O)C(=O)N[C@@H](CCC(=O)O)C(=O)N[C@@H](CC(=O)O)C(N)=O [FYBpY625] (H-CDDDI[pY]DGIEEED-NH2)	17000 ± 13000	0.46 ± 0.15	
CC(C)C[C@H](NC(=O)[C@H](CCC(=O)O)NC(=O)[C@H](CCC(N)=O)NC(=O)[C@H](CC(C)C)NC(=O)[C@H](CC(N)=O)NC(=O)[C@H](CCC(=O)O)NC(=O)[C@H](Cc1ccc(OP(=O)(O)O)cc1)NC(=O)[C@H](CC(=O)O)NC(=O)[C@@H]1CCCN1C(=O)[C@H](C)NC(=O)CNC(=O)[C@H](CCC(=O)O)NC(=O)[C@H](CCC(=O)O)NC(=O)[C@H](CCC(=O)O)NC(=O)[C@@H](NC(=O)[C@H](CCC(=O)O)NC(=O)[C@@H](N)CS)C(C)C)C(=O)N[C@@H](CC(N)=O)C(N)=O [LATpY226] (H-CEVEEEGAPD[pY]ENLQELN-NH2)	15000 ± 11000	0.44 ± 0.27	binding to GRB2 / GRB2-SH2 (in words) [2]: good binder
CC(C)C[C@H](NC(=O)[C@H](CCC(=O)O)NC(=O)[C@H](CCC(=O)O)NC(=O)[C@@H]1CCCN1C(=O)[C@H](CC(=O)O)NC(=O)[C@H](CO)NC(=O)[C@H](Cc1ccc(OP(=O)(O)O)cc1)NC(=O)[C@@H]1CCCN1C(=O)[C@H](CO)NC(=O)[C@H](CCC(=O)O)NC(=O)[C@H](Cc1ccc(O)cc1)NC(=O)[C@@H](NC(=O)[C@@H](N)CS)C(C)C)C(=O)N[C@@H](CCCCN)C(=O)N[C@@H](CC(=O)O)C(N)=O [ZAPpY319] (H-CVYESP[pY]SDPEELKD-NH2)	26000 ± 32000	0.6 ± 0.46	
CGNKGRSGPLPPVPLGIA-NH2 [WAS334]			α-pY titration curve / binding [3]: no titration curves could be generated
CC[C@H](C)[C@H](NC(=O)[C@H](CC(=O)O)NC(=O)[C@H](CC(=O)O)NC(=O)[C@H](Cc1ccc(OP(=O)(O)O)cc1)NC(=O)[C@@H](NC(=O)[C@H](CCC(=O)O)NC(=O)CNC(=O)[C@H](CC(=O)O)NC(=O)[C@H](CC(N)=O)NC(=O)[C@@H](N)CS)[C@@H](C)CC)C(=O)N[C@@H](C)C(=O)N[C@@H](CC(=O)O)C(=O)NCC(N)=O [FYBpY771] (H-CNDGEI[pY]DDIADG-NH2)	5000 ± 1000	0.5 ± 0.23	affinity for / binding to cellular proteome (in words) ([1]; competition of α-pY with cell lysate, FYB peptides): highest affinity of all four FYB peptides
CSCC[C@H](NC(=O)[C@H](CC(=O)O)NC(=O)[C@H](CC(C)C)NC(=O)[C@@H](N)CS)C(=O)NCC(=O)N[C@@H](CC(=O)O)C(=O)N[C@@H](CCC(=O)O)C(=O)N[C@H](C(=O)N[C@@H](Cc1ccc(OP(=O)(O)O)cc1)C(=O)N[C@@H](CC(=O)O)C(=O)N[C@@H](CC(=O)O)C(=O)N[C@H](C(=O)N[C@@H](CC(=O)O)C(=O)N[C@H](C(=O)N[C@@H](CO)C(=O)N[C@@H](CC(=O)O)C(=O)N[C@@H](Cc1ccccc1)C(N)=O)[C@@H](C)O)C(C)C)C(C)C [FYBpY651] (H-CLDMGDEV[pY]DDVDTSDF-NH2)	12000 ± 9000	0.28 ± 0.09	
CC(C)C[C@H](NC(=O)[C@@H](NC(=O)[C@H](CC(=O)O)NC(=O)[C@H](Cc1ccc(OP(=O)(O)O)cc1)NC(=O)[C@H](CCC(=O)O)NC(=O)[C@H](CCC(=O)O)NC(=O)[C@H](CCCNC(=N)N)NC(=O)[C@H](CCCNC(=N)N)NC(=O)CNC(=O)[C@H](CC(C)C)NC(=O)[C@H](CC(N)=O)NC(=O)[C@H](CC(C)C)NC(=O)[C@H](CCC(=O)O)NC(=O)[C@H](CC(N)=O)NC(=O)[C@H](Cc1ccc(OP(=O)(O)O)cc1)NC(=O)[C@H](CC(C)C)NC(=O)[C@H](CCC(N)=O)NC(=O)[C@H](CC(N)=O)NC(=O)CCCCCNC(=O)[C@@H](N)CS)C(C)C)C(N)=O [CD3ζpY72/83] (H-C[Ahx]NQL[pY]NELNLGRREE[pY]DVL-NH2)	25000 ± 27000	0.69 ± 0.61	
